# From patent publication US6686349B2, “Substituted tetracyclic pyrroloquinolone derivatives useful as phosphodiesterase inhibitors” (Ortho-McNeil Pharmaceutical, Inc., priority 2001, dated 2004)
# Molecular target: PDEV (UniProt O76074)
# Experiment: In vitro determination of Ki for phosphodiesterase inhibitors (PDEV)
# Format: biochemical, rabbit and human tissues
# Conditions: 30 nM 3H-cGMP, 30° C. for 90 minutes; Ki is equivalent to the IC50 value
# Description: Cyclic Nucleotide Phosphodiesterase (PDE) Assay
# PDEV was isolated from rabbit and human tissues according to the protocol described by Boolell et al. (Boolell, M., Allen, M. J., Ballard, S. A., Ge[o-Attee, Muirhead, G. J., Naylor, A. M., Osterloh, I. H., and Gingell, C) in International Journal of Impotence Research 1996 8, 47-52 with minor modifications.
# Briefly, rabbit or human tissues were homogenized in an ice-cold buffer solution containing 20 mM HEPES (pH 7.2), 0.25M sucrose, 1 mM EDTA, and 1 mM PMSF. The homogenates were centrifuged at 100,000 g for 60 minutes at 4° C. The supernatant was filtered through […] filter and loaded on a Pharmacia Mono Q anion exchange column (1 ml bed volume) that was equilibrated with 20 mM HEPES, 1 mM EDTA and 0.5 mM PMSF. After washing out unbound proteins, the enzymes were eluted with a linear gradient of 100-600 mM NaCl in the same buffer (35 to 50 ml total, depending on the tissue. Enzymes from the skeletal muscle, corpus cavernosum, retina, heart and platelet were eluted with 35, 40, 45, 50, and 50 ml respectively.) The column was run at a flow rate of 1 ml/min and 1 ml fractions were collected. The fractions comprising various PDE activities were pooled separately and used in later studies. […]
# In Vitro Determination of Ki for Phosphodiesterase Inhibitors
# The assays were adapted to a 96-well format. Phosphodiesterase was assayed in 5 mM MgCl2, 15 mM Tris HCl (pH 7.4), 0.5 mg/ml bovine serum albumin, 30 nM ^3H-cGMP and test compound at various concentrations. The amount of enzyme used for each reaction was such that less than 15% of the initial substrate was converted during the assay period. For all measurements, the test compound was dissolved and diluted in 100% DMSO (2%DMSO in assay). The total volume of the assay was 100 μl. The reaction mixture was incubated at 30° C. for 90 minutes. The reaction was stopped by boiling for 1 minute and then immediately cooled by transfer to an ice bath. To each well was then added 25 μl 1 mg/ml snake venom (Ophiophagus hannah) and the reaction mixture incubating at 30° C. for 10 minute. The reaction was stopped by the addition of 1 ml Bio-Rad AG1-X2 resin slurry (1:3). An aliquot of 200 μl was taken and counted by liquid scintillation.
# The % inhibition of the maximum substrate conversion (by the enzyme in the absence of inhibitor) was calculated for each test compound concentration. Using GraphPad Prism's nonlinear regression analysis (sigmoidal dose response), the % inhibition vs log of the test compound concentration was plotted to determine the IC50. Under conditions where substrate concentration<<Km of the enzyme (Km=substrate concentration at which half of the maximal velocity of the enzyme is achieved), Ki is equivalent to the IC50 value.
# Following the procedures as described in Examples 10 and 11 herein, representative compounds of the instant invention were tested for PDEV and PDEVI activity. PDEV inhibitory activities for these compounds are presented as Ki values (nM) in the Table 4.
row,Ki,Compound
1,63 nM,"O=C1[C@H]2c3c([nH]c4ccccc4c3=O)[C@@H](c3ccc4c(c3)OCO4)N2C(=O)CN1Cc1ccccn1 [Compound 10, 11-Benzo{1,3]dioxol-5-yl-3-pyridin-2-ylmethyl-2,3,4a,11-tetrahydro-10H-3,10,11a-triaza-benzo[b]fluorene-1,4,5-trione]"
2,48 nM,"CN1CC(=O)N2C(C1=O)c1c([nH]c3ccccc3c1=O)[C@H]2c1ccc2c(c1)OCO2 (stereo in doubt) [Compound 9, 11-Benzo[1,3]dioxol-5-yl-3-methyl-2,3,4a,11-tetrahydro-10H-3,10,11a-triaza-benzo[b]fluorene-1,4,5-trione]"
3,14 nM,"CN1CC(=O)N2[C@H](c3ccc4c(c3)OCO4)c3[nH]c4ccccc4c(=O)c3[C@@H]2C1=O [Compound 8, 11-Benzo[1,3]dioxol-5-yl-3-methyl-2,3,4a,11-tetrahydro-10H-3,10,11a-triaza-benzo[b]fluorene-1,4,5-trione]"

# Continued, compound first:
row,Compound,Ki
1,"CN1CC(=O)N2[C@@H](c3ccc4c(c3)OCO4)c3[nH]c4ccccc4c(=O)c3[C@@H]2C1=O [Compound 4, 11-Benzo[1,3]dioxol-5-yl-3-methyl-2,3,4a,11-tetrahydro-10H-3,10,11a-triaza-benzo[b]fluorene-1,4,5-trione]",80 nM
2,"CN1CC(=O)N2[C@H](c3ccc4c(c3)CCO4)c3[nH]c4ccccc4c(=O)c3[C@@H]2C1=O [Compound 1, 11-(2,3-Dihydro-benzofuran-5-yl)-3-methyl-2,3,4a,11-tetrahydro-10H-3,10,11a-triaza-benzo[b]fluorene-1,4,5-trione]",7 nM
3,"CN1CC(=O)N2[C@@H](c3ccc4c(c3)OCO4)c3[nH]c4ccccc4c(=O)c3[C@H]2C1=O [Compound 3, 11-Benzo[1,3]dioxol-5-yl-3-methyl-2,3,4a,11-tetrahydro-10H-3,10,11a-triaza-benzo[b]fluorene-1,4,5-trione]",17 nM
4,"CN1CCC(=O)N2[C@H](c3ccc4c(c3)OCO4)c3[nH]c4ccccc4c(=O)c3[C@@H]2C1=O [Compound 7, 11-Benzo[1,3]dioxol-5-yl-7-methyl-5b,8,9,12-tetrahydro-7H,11H-7,10a,12-triaza-naphtho[2,3-a]azulene-5,6,10-trione]",148 nM
5,"CN1CC(=O)N2[C@H](c3ccc4c(c3)CCO4)c3[nH]c4ccccc4c(=O)c3[C@H]2C1=O [Compound 2, 11-(2,3-Dihydro-benzofuran-5-yl)-3-methyl-2,3,4a,11-tetrahydro-10H-3,10,11a-triaza-benzo[b]fluorene-1,4,5-trione]",69 nM
6,"O=C1[C@H]2c3c([nH]c4ccccc4c3=O)[C@@H](c3ccc4c(c3)OCO4)N2C(=O)CN1Cc1ccccc1 [Compound 5, 11-Benzo[1,3]dioxol-5-yl-3-benzyl-2,3,4a,11-tetrahydro-10H-3,10,11a-triaza-benzo[b]fluorene-1,4,5-trione]",123 nM

# System: not listed separately
# Experiment: In vivo testing following the procedure of Carter et al.
# Conditions: J. Urology 1998, 160, 242-246
# Description: Following the procedure disclosed by Carter et al., (Carter, A. J., Ballard, S. A., and Naylor, A. M.) in The Journal of Urology 1998, 160, 242-246, compound #8 was tested as active for in vivo activity.
row,Compound,in vivo activity
1,"CN1CC(=O)N2[C@H](c3ccc4c(c3)OCO4)c3[nH]c4ccccc4c(=O)c3[C@@H]2C1=O [Compound 8, 11-Benzo[1,3]dioxol-5-yl-3-methyl-2,3,4a,11-tetrahydro-10H-3,10,11a-triaza-benzo[b]fluorene-1,4,5-trione]",active

# System: not given
# Experiment: not given
# Conditions: use of sildenafil; non-selective effects on a variety of tissues; cited from earlier work
row,Compound,undesirable side effects
1,"CCCc1nn(C)c2c(=O)[nH]c(-c3cc(S(=O)(=O)N4CCN(C)CC4)ccc3OCC)nc12 [sildenafil, 5-[2-ethoxy-5-(4-methylpiperazin-1-ylsulphonyl)phenyl]-1-methyl-3-n-propyl-6,7-dihydro-1H-pyrazolo[4,3-d]pyrimidin-7-one]","headache, flushing and disrupted color vision"
